From a melting point compilation (Tetko et al.; mined from patent text by program, amines drawn as free bases though some values may be those of a salt)

Row | SMILES | melting point [°C]
1 | CCC(C(C)=CC(CNC(=O)c1nccnc1N)=NO)[N+](=O)[O-] (configuration not stated) | 139 to 141
2 | CNC(=NS(=O)(=O)c1ccc(C(F)(F)F)cc1)N1CC(c2ccccc2)C(c2ccc(Cl)cc2)=N1 (single isomer, unassigned; (-)) | 157 to 160
3 | Cc1c(C)c(C2CC(=O)C=C(O)C2)c(Cl)c2c1CCO2 (configuration not stated) | 224
4 | COc1ccc2c(c1)C(=O)C(Cc1cccc(NS(=O)(=O)C(F)(F)F)c1)CC2 (configuration not stated) | 152 to 154
5 | N#Cc1ccc(N2C(=O)N(CCF)C3(CCOCC3)C2=O)cc1C(F)(F)F | 192 to 193
6 | COc1cccc(NC(=O)NCc2ccc(Nc3n[nH]c4ncnc(Nc5cccc(Cl)c5)c34)cc2)c1 | 157 to 160
7 | CCOC(=O)C=Cc1ccc(OCCc2nc(-c3ccccc3)oc2C)cc1 | 114 to 115
8 | COc1ccccc1COc1ccc(S(=O)(=O)c2ccc(C)nc2Nc2c(C)cc(C)cc2C)cc1 | 148 to 150
9 | O=C(OC#CCc1ccccc1)C1CN=CNC1 (configuration not stated) | 117 to 118
10 | CCc1cccc(C)c1S(=O)(=O)c1nn(C(=O)N(CC)CC)cc1OC | 102 to 104
11 | COc1cc(C(C)C)c2c(c1)S(=O)(=O)N(COc1cc(C(F)(F)F)nn1-c1ccc(Cl)cn1)C2=O | 173 to 174
12 | O=C(c1cc2ccccc2[nH]1)N1CCOCC1Cl (configuration not stated) | 254 to 255
13 | CC(C)Cn1c(=O)n(C)c(=O)c2c(SCCCO)c(C(O)c3cccc4ccccc34)sc21 (configuration not stated) | 100 to 105
14 | CC(C)(C)c1nc(C=Cc2cccnc2)ncc1O | 150 to 151
15 | CCN(CC)C(=O)N1CCc2ccc(S(=O)(=O)NC(=O)NC3CCCCC3)cc2CC1 | 168 to 169
16 | Cc1nc2c(Cl)nccc2n1C | 197 to 198
17 | O=C(NCc1ccc(F)cc1)Nc1ccc(CN2C(=O)[C@H]3CCC[C@H]3N(C(=O)CN3C(=O)c4ccccc4C3=O)c3ccccc32)cc1 (relative stereo) | 154 to 156
18 | CCOC(=O)/C=C(C)/C=C/C=C(\C)C1=Cc2cc(C(C)(C)C)cc(C)c2OC1 | 73
19 | CCNC(=O)c1c(F)cccc1[Si](C)(C)C | 86 to 87
20 | ClC(Cl)(Cl)c1nc(NCc2ccccc2)nc(C(Cl)(Cl)Cl)n1 | 96.5 to 97
21 | CN=C(C1=C(O)C(=O)c2ccccc2C1=O)c1ccccc1 | 235 to 237
22 | O=C(Nc1c(C(O)(C(F)(F)F)C(F)(F)F)ccc2ccccc12)c1ccc(Cl)c(Cl)c1 | 174 to 175
23 | COc1ccccc1NC(=S)c1ccc(C(F)(F)F)cc1 | 118 to 120
24 | COC(=O)CCn1c(C)c(Cc2cccnc2)c2c(CCC(=O)O)cccc21 | 165 to 167
25 | CS(=O)(=O)c1c(C(=O)NN=Cc2nccs2)[nH]c2ccccc12 | > 280

Row | SMILES | melting point [°C]
26 | Nc1nc(-c2cccnc2Cl)c(-c2cccnc2Cl)o1 | 243 to 244
27 | OCc1cn2c(n1)CN=C(c1ccccc1)c1cc(C(F)(F)F)ccc1-2 | 193 to 194
28 | [N-]=[N+]=NCCCc1ccc(C(N)=O)s1 | 85 to 87
29 | Nc1nc2ccccc2c2c1nc(CC1CC1)n2CCOc1ccccc1 | 192 to 193
30 | COC(=O)C1=C(C)NC(C)=C(C(=O)OCCCCl)C1c1cccc([N+](=O)[O-])c1 (configuration not stated) | 125 to 130
31 | O=C1CC(c2cccc(-c3nc(CN4CCOCC4)co3)c2)=Nc2ccc(-n3cccc3)cc2N1 | 166 to 167
32 | C=CCO[C@H]1[C@H](C)OC(=O)[C@@H](NC(=O)c2nccc(OC)c2OCc2ccccc2)COC(=O)[C@@H]1Cc1ccccc1 | 55 to 57
33 | CC(=O)c1cc2c(c(C=O)c1O)CCCC2 | 77.5 to 78.5
34 | CN(C(=O)On1nc(Br)c(Br)c1Br)c1ccccc1 | 115 to 119
35 | CN1C(=O)C(C)(C)Oc2ccc(C3=NNC(=O)CC3)cc21 | 169 to 171
36 | O=C(O)c1ccc(-c2ccc(OCCCCCCO)cc2)cc1 | 235
37 | COc1cc(OC)nc(NC(=O)NS(=O)(=O)c2nccn2-c2ccccn2)n1 | 146 to 149
38 | COc1ccc(-c2c(C)cc3c(O)cc(C)nn23)c(Cl)c1 | 196 to 198
39 | NC(=O)N1CC(OCc2cccc(Cl)c2)C1 | 163 to 166
40 | COC(=O)C(=Cc1cccc(O)c1)NC(C)=O | 115
41 | Cc1c(C=O)c2cc(Br)ccc2n1-c1ccc(O)cc1 | > 250
42 | Cc1cc(NCCO)n2ncc([N+](=O)[O-])c2n1 | 231
43 | N#CCCCN(Cc1ccccc1)Cc1ccccc1 | 45 to 46
44 | CC(OC1CN(C(N)=O)C1)c1cccc(C(F)(F)F)c1 (configuration not stated) | 130 to 132
45 | CCOC(=O)C(CC(N)=O)(C(=O)OCC)n1cccc1 | 94 to 95
46 | CCOc1ccc(-c2cn(C)c(SCC)n2)cc1 | 98.2
47 | Cc1ccccc1-n1c(CF)nc2ccc(N)cc2c1=O | 195 to 196
48 | Cc1nc(Cl)c(C)c(Cl)n1 | 46 to 47
49 | O=C(Cl)[C@@H]1CCC(=O)N1C(=O)OCc1ccccc1 | 65 to 70
50 | CN1Cc2cncn2C(c2ccc(Br)cc2)C1=O (configuration not stated) | 143 to 144

Row | SMILES | melting point [°C]
51 | C=C1C(O)C2(O)OCC34C(CC5C(C)=CC(=O)C(O)C5(C)C23)OC(=O)CC14 (configuration not stated) | 235 to 237
52 | CCO[PH](=O)Cc1cc(Oc2ccc(C(F)(F)F)cc2Cl)ccc1[N+](=O)[O-] (configuration not stated) | 106 to 107
53 | CCc1ccc(C(=O)c2ccc(F)cc2)c(O)c1 | 44 to 48
54 | Cc1nc(N2CCCC2)nc2c1c(=O)c(C(=O)O)cn2C1CC1 | 253
55 | NC(=O)N1CCN(c2nn(-c3ccccc3)c3cc(F)ccc23)CC1 | 168 to 170
56 | Cc1nn(-c2ccc(C(F)(F)F)cn2)cc1CCCOc1ccccc1CC(=O)O | 128 to 129
57 | CC(C)(C)NC(=O)c1ccccc1NS(=O)(=O)C(F)(F)F | 108 to 110
58 | Cc1cc2c(cc1C)OCC(NNc1ncnc3c1ncn3C1OC(CO)C(O)C1O)C2 (configuration not stated) | 170 to 172
59 | COc1ccc(N2CCN(c3c(C)c(C)c4c(c3C)C(N3CCOCC3)C(C)(C)O4)CC2)cc1 (configuration not stated) | 181 to 182
60 | CS(=O)c1ccc(-n2cnc(-c3ccc(F)cc3)c2-c2ccncc2)cc1 (configuration not stated) | 202 to 203
61 | CCC(CC)N(O)C(=O)Nc1ccc(Oc2ccccc2)cc1 | 124 to 125
62 | COc1ccc(CCC2COC(Cn3ccnc3)(c3ccc(Cl)cc3Cl)O2)cc1 (configuration not stated) | 131
63 | Cc1cccc(-c2ccccc2C(=O)NCCc2ccccc2)c1N1C(=O)c2ccccc2C1=O | 156
64 | Fc1ccc(N2CCN(CCCNc3ccc(-n4ccnc4)cc3)CC2)cc1 | 164 to 166
65 | CC1(C)CCC[C@H](N2C(=O)c3ccccc3C2=O)C(=O)N1 | 193 to 194
66 | CCCCc1nc(Cl)c(CO)n1Cc1ccc(-c2ccccc2-c2nnnn2C(c2ccccc2)(c2ccccc2)c2ccccc2)cc1 | 95 to 98
67 | CCOc1cc2ncc(C#N)c(Nc3ccc4cc[nH]c4c3)c2cc1OCC | 128 to 130
68 | CCCCCCCCCCCCCCCCCCOc1cc(N)cc(OCc2ccccc2)c1 | 57 to 59
69 | O=c1cc(-c2cc(OCc3ccccc3)cc(OCc3ccccc3)c2)oc2cc(OCC3CO3)ccc12 (configuration not stated) | 172 to 173
70 | CN(C)CCCNC(=S)Nc1ccccc1 | 112 to 114
71 | Nc1ccc(C2CCSCC2)cc1 | 103 to 106
72 | COc1ccc2cc(C(C)=CC(C)=O)cc(F)c2c1 | 126 to 127
73 | O=C(Nc1cnc2c(c1)nc1n2CCC1O)c1cc2cc(C(F)(F)F)cnc2n1Cc1cccc(F)c1 (single isomer, unassigned; (-)) | 279 to 280
74 | CCOC(=O)C(C)(C)Oc1ccc(OCCn2c(=O)sc3cc(C(=O)c4ccccc4)ccc32)cc1 | 120 to 121
75 | CC(=O)c1ccc(OC2CCOCC2)cc1O | 99 to 104

Row | SMILES | melting point [°C]
76 | CCOc1nn(-c2ccc(C(F)(F)F)cn2)cc1CCCOc1c(CCC(=O)O)cccc1OC | 87 to 88
77 | CC(C)(C)OC(=O)C=Cc1cc(Br)cc(Cc2cccnc2)c1 | 97 to 99
78 | CN1C(=O)N(c2cc(F)ccc2F)C(=O)C1=Cc1ccccc1F | 94 to 97
79 | CCCOc1ccc2c(c1)C(c1ccccc1OCCC)C(C(=O)O)C2c1ccc2c(c1)OCO2 (configuration not stated) | 179 to 180
80 | COC(=O)C(=O)c1c[nH]c2c1ccc1c3ccccc3[nH]c12 | > 290
81 | Cc1ccc(-c2nnn(C(c3ccccc3)(c3ccccc3)c3ccccc3)n2)cc1 | 172 to 175
82 | Cc1ncc([N+](=O)[O-])n1CCN1C(=O)c2cccc([N+](=O)[O-])c2C1=O | 175 to 176
83 | CCc1c(N)c(C(N)=O)nn1C1CN(CC)C1 | 155 to 157
84 | O=Cc1ccc(C(=O)Nc2ccc(OCC(F)(F)C(F)F)cc2)cc1 | 152
85 | c1ccc2cc(-c3cc4nccnc4[nH]3)ncc2c1 | 281 to 285
86 | CC(=O)OC1C(Oc2cc(C)cc(O)c2C(=O)CCc2ccc3occc3c2)OC(CO)C(O)C1OC(C)=O (configuration not stated) | 151 to 153
87 | COc1ccc(C=O)c(O[Si](C)(C)C(C)(C)C)c1O[Si](C)(C)C(C)(C)C | 74 to 75
88 | CC1(C)C(=O)N(c2ccc([N+](=O)[O-])c(C(F)(F)F)c2)C(=O)N1CCCCCCCN1C(=O)N(c2ccc([N+](=O)[O-])c(C(F)(F)F)c2)C(=O)C1(C)C | 137 to 138
89 | CC(C)c1ccc2c(c1)OCc1ccc(C(=O)O)cc1C2=O | 203 to 204
90 | c1ccc2c(Cn3cncn3)noc2c1 | 102 to 104
91 | Cc1cc2c(-c3ccccc3)c3n(c(=O)c2cc1C)CCCC3O (configuration not stated) | 210 to 212
92 | O=C(CC(F)(F)F)N[C@H]1CC[C@H](CCN2CCN(c3nccc4c3CCO4)CC2)CC1 | 196
93 | CCOC(=O)C1=C(C)NC(c2csc(C)n2)=NC1c1cccc(Cl)c1 (configuration not stated) | 143 to 144
94 | COc1ccc(CN2CCC(COc3ccc(F)cc3)CC2)cc1 | 79 to 81
95 | Cc1cccc(/C=C/c2nc(COc3ccc(CCCCn4ccnc4CC(O)CO)cc3)co2)c1 (configuration not stated) | 102 to 104
96 | CCC(C)N1CN(C)C(=O)N(c2nc3c(s2)C(=O)CC(C)(C)C3)C1 (configuration not stated) | 126 to 127
97 | CN1C(=O)C2CC2(c2ccc(N(C)C)cc2)C1=O (configuration not stated) | 140
